Measurements from PMC2424174, “Suppression of Tumor Growth and Angiogenesis by a Specific Antagonist of the Cell-Surface Expressed Nucleolin” (PLoS ONE, 2008).

How the values were obtained:
HUVECs [1] = assay: FACScan competition of HB-19/Btn binding to HUVECs; parameters: species or system human; conditions: 1 µM HB-19/Btn, 4 °C, competitor 50 µM
Method: (§1) Figure 3 Specific binding and entry of HB-19 in endothelial cells. (A) HB-19/Btn forms a stable complex with nucleolin expressed on the surface of HUVECs. Cells were incubated (45 min, 20°C) with 0, 1, 2, 4, 8 and 12 µM of HB-19/Btn before preparation of surface/cytoplasmic and nuclear extracts and recovery of surface nucleolin from the surface/cytoplasmic extracts as in Figure 2A. Material extracted from 2×10^7 and 2×10^6 cells was analyzed in panels Surface and Surface/Cytoplasm or Nucleus, respectively. Immunoblotting was with the anti-nucleolin mAb D3. (B) The specific binding of HB-19/Btn to HUVECs. The binding of 1 µM HB-19/Btn was studied at 4 °C by FACScan analysis. To show the specificity of binding, the reaction was carried out in the absence or presence of 50 µM HB-19, F3, or 9Arg peptides. The ordinate gives the relative cell number, whereas the abscissa gives the relative fluorescence intensity. (C) HB-19 entry in HUVECs. Cells were incubated with 5 µM of HB-19/Btn (1 hour, 37°C) before fixation in PFA (for surface binding) or PFA-Triton (for entry), respectively. Cells were then successively incubated with rabbit anti-biotin antibodies and goat Texas Red-conjugated anti-rabbit IgG, and processed for confocal microscopy. The scans of cells toward the middle cell layer are presented (with the DAPI stained nuclei).

HUVECs [2] = assay: HB-19 entry in HUVECs, confocal microscopy; type: cell-based, human; conditions: 5 µM HB-19/Btn, 1 hour, 37°C
Method: as §1, with “nuclei). […]” for “nuclei).”

U87MG cells = assay: Colony formation in soft agar, U87MG; type: cell-based, human; conditions: 5 µM HB-19, U87MG
Method: Figure 4 HB-19 inhibits colony formation in soft agar by tumor cell lines. (A) MDA-MB-231 cells in culture medium were seeded in triplicate in the absence (histogram C) or presence of 0.1, 0.5 and 1 of µM HB-19, or 0.1 µM of the anti-nucleolin mAb MS-3 or control IgG, or 10 µM bisphosphonate (BisP). (B) Various tumor cell lines (as indicated) in culture medium were seeded in triplicate in the absence (histogram Control) or presence of 5 µM HB-19. After 10–21 days, colonies with diameters greater than 50 µm were scored as positive. Statistical significance: *0.01<p<[…], **p<0.01, ***p<0.001.
Carcinoma cells (2×10^4) were mixed in 0.35% top agar, diluted in complete medium (DMEM containing 10% FBS) in the absence or presence of HB-19, and plated onto 0.8% bottom agar into 12-well plates. Cells were treated twice a week during 10 to 21 days. Colonies with diameters greater than 50 µm were scored as positive using a phase contrast microscope equipped with a measuring grid at magnification 100× [45]. The number of colonies was determined by analyzing 5 fields/well from 3 wells and the test was repeated at least twice.

[3] = test system: chick embryo chorioallantoic membrane; assay: Chick embryo chorioallantoic membrane (CAM) angiogenesis assay; type: in vivo, chicken; conditions: 48 h; for relative percent inhibition of angiogenesis: total vessel length vs control, P<0.001, 15–20 eggs
Method: Figure 7 Inhibition of in vivo angiogenesis by HB-19 in chick embryo chorioallantoic membrane (CAM) assay. Macroscopic observation of the angiogenic response induced by gelatin sponges (1 cm^2), soaked with 40 µl of PBS (Control) or 40 µl PBS containing HB-19 at concentrations of 10, 20 and 50 µM (corresponding to 0.4, 0.8 and 2 nmols of HB-19, respectively). After 48 h, CAMs were fixed and excised from the eggs . Photographs were taken and the total length of the vessels was measured using the Image PC image-analysis software (Scion Corporation, USA)[48]. Each sample was tested three times using 15–20 eggs for each data point. The relative percent inhibition (P<0.001) of angiogenesis compared to the control was 27, 36 and 51% in the presence of 0.4, 0.8 and 2 nmols of HB-19, respectively.
Leghorn fertilized eggs (Pindos, Greece) were incubated for 4 days at 37°C. A window was then opened on the eggshell, exposing the CAM. The window was covered with sterile tape, and the eggs were returned to the incubator. On day 9 of embryo development, 20 µl of distilled water alone as a control or containing HB-19 was applied on a 1-cm2 area of the CAM inside a silicon ring. After 48 hours of incubation at 37°C, CAMs were fixed in situ with saline-buffered formalin, excised from the eggs, placed on slides, and left to dry in air. Photographs were taken and the total length of the vessels was measured as described.

For “pseudo-tripeptide Lysψ(CH2N)-Pro-Arg coupled to a template (H2NLys-Lys-Lys-Gly-Pro-Lys-Glu-Lys-AhxCONH2) [HB-19, pseudopeptide presenting pentavalently the pseudo-tripeptide Lysψ(CH2N)-Pro-Arg coupled to a template]”, the “prevention of HB-19/Btn binding” value (HUVECs [1]) was “prevented by the excess HB-19”, the “internalization and subcellular localization” value (HUVECs [2]) was “internalized and is concentrated in the cytoplasm without translocation into the nucleus” and the colony formation (U87MG cells) was “reduced markedly”. The “relative percent inhibition of angiogenesis” value (shortened to “relative percent inhibition”) ([3]; 0.4 nmol HB-19 (10 µM, 40 µl)) was 27%, the “relative percent inhibition” value ([3]; 0.8 nmol HB-19 (20 µM, 40 µl)) was 36% and the “relative percent inhibition” value ([3]; 2 nmol HB-19 (50 µM, 40 µl)) was 51%. For the same substance, the “blood vessel branching and development” value ([3]; HB-19 10, 20 and 50 µM) was “impaired significantly blood vessel branching and development in a dose-dependent manner”.
